Laboratory results reported in ChEMBL document CHEMBL3885861, “Open TG-GATES”.

Species: Rattus norvegicus
Assay: Open TG-GATES - Regimen: Single
Format: toxicity, organism-based, Sprague-Dawley
Design: regimen Single, gender Male, age 6 weeks
Conditions: in vivo, po, route gavage; for A/G / ALP / ALT / AST / BUN / CRE / Ca / Cl / DBIL / GLC / IP / K / LDH / Na / PL / RALB / TBIL / TC / TG / TP / gamma-GTP: tissue Plasma; for APTT / Bas / Eos / Fbg / Hb / Ht / Lym / MCH / MCHC / MCV / Mono / Neu / PT / Plat / RBC / Ret / WBC: tissue Blood; for KIDNEY_L / KIDNEY_R / KIDNEY_TOTAL: tissue Kidney; for LIVER: tissue Liver
[1] = 30 mg/kg, 9 h, dose level Middle
[2] = 30 mg/kg, 24 h, dose level Middle
[3] = 100 mg/kg, 3 h, dose level High

Which A/G [1] does the source give for `O=C1CN(/N=C/c2ccc([N+](=O)[O-])o2)C(=O)N1` [NITROFURANTOIN] here?
The A/G was 1.6.

And the ALP [1]?
The ALP was 825.2 IU/L.

And the ALT [1]?
The ALT was 33.2 IU/L.

And the AST [1]?
The AST was 62 IU/L.

What about the BUN [1] of the same compound?
The BUN was 10.4 mg/dL.

What about the CRE [1] of the same compound?
Its CRE is 0.3 mg/dL.

And the Ca [1]?
Its Ca is 10.4 mg/dL.

What about the Cl [1] of the same compound?
Its Cl is 101.8 meq/L.

And the DBIL [1]?
Its DBIL is 0.072 mg/dL.

And the GLC [1]?
The GLC was 199 mg/dL.

What about the IP [1] of the same compound?
Its IP is 9.7 mg/dL.

What about the K [1] of the same compound?
Its K is 3.8 meq/L.

And the LDH [1]?
The LDH was 197.6 IU/L.

What about the Na [1] of the same compound?
Its Na is 139.6 meq/L.

And the PL [1]?
The PL was 130.2 mg/dL.

And the RALB [1]?
Its RALB is 3.3 g/dL.

What about the TBIL [1] of the same compound?
Its TBIL is 0.1 mg/dL.

What about the TC [1] of the same compound?
The TC was 67.4 mg/dL.

What about the TG [1] of the same compound?
The TG was 57.4 mg/dL.

And the TP [1]?
The TP was 5.4 g/dL.

And the gamma-GTP [1]?
The gamma-GTP was 0.4 IU/L.

What about the TERMINAL_BW [2] of the same compound?
Its TERMINAL_BW is 231.7 g.

And the APTT [2]?
The APTT was 18.6 s.

What about the Bas [2] of the same compound?
Its Bas is 0%.

What about the Eos [2] of the same compound?
The Eos was 1%.

What about the Fbg [2] of the same compound?
The Fbg was 219.2 mg/dL.

And the Hb [2]?
Its Hb is 13.3 g/dL.

What about the Ht [2] of the same compound?
The Ht was 37.8%.

And the Lym [2]?
The Lym was 77.8%.

And the MCH [2]?
The MCH was 21.9 pg.

What about the MCHC [2] of the same compound?
The MCHC was 35.1%.

What about the MCV [2] of the same compound?
Its MCV is 62.4 fL.

What about the Mono [2] of the same compound?
The Mono was 2.4%.

What about the Neu [2] of the same compound?
Its Neu is 17.4%.

And the PT [2]?
The PT was 12.7 s.

And the Plat [2]?
Its Plat is 115.4 x10_4/uL.

What about the RBC [2] of the same compound?
The RBC was 604.6 x10_4/ul.

And the Ret [2]?
Its Ret is 7.1%.

What about the WBC [2] of the same compound?
Its WBC is 92 x10_2/uL.

What about the KIDNEY_L [2] of the same compound?
Its KIDNEY_L is 1.1 g.

What about the KIDNEY_R [2] of the same compound?
The KIDNEY_R was 1.1 g.

What about the KIDNEY_TOTAL [2] of the same compound?
The KIDNEY_TOTAL was 2.1 g.

And the LIVER [2]?
Its LIVER is 11.1 g.

And the A/G [2]?
The A/G was 1.6.

What about the ALP [2] of the same compound?
Its ALP is 1093.6 IU/L.

What about the ALT [2] of the same compound?
The ALT was 39 IU/L.

And the AST [2]?
Its AST is 67.8 IU/L.

What about the BUN [2] of the same compound?
Its BUN is 13.6 mg/dL.

What about the CRE [2] of the same compound?
The CRE was 0.4 mg/dL.

What about the Ca [2] of the same compound?
The Ca was 10.7 mg/dL.

And the Cl [2]?
Its Cl is 102.2 meq/L.

What about the DBIL [2] of the same compound?
The DBIL was 0.1 mg/dL.

What about the GLC [2] of the same compound?
Its GLC is 211.8 mg/dL.

And the IP [2]?
Its IP is 7.6 mg/dL.

What about the K [2] of the same compound?
The K was 4.1 meq/L.

What about the LDH [2] of the same compound?
The LDH was 176 IU/L.

And the Na [2]?
Its Na is 139.8 meq/L.

And the PL [2]?
The PL was 140.8 mg/dL.

What about the RALB [2] of the same compound?
Its RALB is 3.3 g/dL.

And the TBIL [2]?
The TBIL was 0.2 mg/dL.

What about the TC [2] of the same compound?
Its TC is 69.4 mg/dL.

And the TG [2]?
Its TG is 115 mg/dL.

And the TP [2]?
The TP was 5.4 g/dL.

What about the gamma-GTP [2] of the same compound?
The gamma-GTP was 1 IU/L.

What about the TERMINAL_BW [3] of the same compound?
The TERMINAL_BW was 220.5 g.

And the TERMINAL_BW (100 mg/kg, 3 h, dose level Low)?
The TERMINAL_BW was 205.8 g.

And the APTT [3]?
The APTT was 19.6 s.

What about the Bas [3] of the same compound?
The Bas was 0%.

What about the Eos [3] of the same compound?
Its Eos is 1%.

What about the Fbg [3] of the same compound?
The Fbg was 215.6 mg/dL.

What about the Hb [3] of the same compound?
The Hb was 13.1 g/dL.

What about the Ht [3] of the same compound?
The Ht was 37.2%.

What about the Lym [3] of the same compound?
The Lym was 78.6%.

What about the MCH [3] of the same compound?
Its MCH is 21.8 pg.

What about the MCHC [3] of the same compound?
Its MCHC is 35.1%.

And the MCV [3]?
The MCV was 62.1 fL.

And the Mono [3]?
Its Mono is 2.6%.

What about the Neu [3] of the same compound?
Its Neu is 16.4%.

What about the PT [3] of the same compound?
Its PT is 12.8 s.

What about the Plat [3] of the same compound?
Its Plat is 113 x10_4/uL.

And the RBC [3]?
The RBC was 599.8 x10_4/ul.

What about the Ret [3] of the same compound?
Its Ret is 8%.

And the WBC [3]?
The WBC was 80.6 x10_2/uL.

And the APTT (100 mg/kg, 3 h, dose level Low)?
The APTT was 16.1 s.

And the Eos (100 mg/kg, 3 h, dose level Low)?
Its Eos is 1.2%.

And the Fbg (100 mg/kg, 3 h, dose level Low)?
Its Fbg is 227.8 mg/dL.

What about the Hb (100 mg/kg, 3 h, dose level Low) of the same compound?
The Hb was 13.4 g/dL.

And the Ht (100 mg/kg, 3 h, dose level Low)?
Its Ht is 40.5%.

What about the Lym (100 mg/kg, 3 h, dose level Low) of the same compound?
Its Lym is 75.6%.

What about the MCH (100 mg/kg, 3 h, dose level Low) of the same compound?
Its MCH is 21.4 pg.

And the MCHC (100 mg/kg, 3 h, dose level Low)?
Its MCHC is 33%.

What about the MCV (100 mg/kg, 3 h, dose level Low) of the same compound?
Its MCV is 64.7 fL.

And the Mono (100 mg/kg, 3 h, dose level Low)?
The Mono was 6.8%.

What about the PT (100 mg/kg, 3 h, dose level Low) of the same compound?
Its PT is 11.9 s.

What about the Plat (100 mg/kg, 3 h, dose level Low) of the same compound?
Its Plat is 124.7 x10_4/uL.

And the RBC (100 mg/kg, 3 h, dose level Low)?
The RBC was 625.4 x10_4/ul.

And the Ret (100 mg/kg, 3 h, dose level Low)?
Its Ret is 7.7%.

And the WBC (100 mg/kg, 3 h, dose level Low)?
The WBC was 78.5 x10_2/uL.

And the KIDNEY_L [3]?
The KIDNEY_L was 1 g.

And the KIDNEY_R [3]?
Its KIDNEY_R is 1 g.

What about the KIDNEY_TOTAL [3] of the same compound?
Its KIDNEY_TOTAL is 2 g.

And the KIDNEY_L (100 mg/kg, 3 h, dose level Low)?
Its KIDNEY_L is 0.9 g.

What about the KIDNEY_TOTAL (100 mg/kg, 3 h, dose level Low) of the same compound?
Its KIDNEY_TOTAL is 1.9 g.

What about the LIVER [3] of the same compound?
Its LIVER is 10 g.

What about the LIVER (100 mg/kg, 3 h, dose level Low) of the same compound?
The LIVER was 8.6 g.

And the A/G [3]?
Its A/G is 1.6.

What about the ALP [3] of the same compound?
The ALP was 909.6 IU/L.

And the ALT [3]?
Its ALT is 38 IU/L.

And the AST [3]?
Its AST is 69.8 IU/L.

And the BUN [3]?
Its BUN is 12 mg/dL.

What about the CRE [3] of the same compound?
The CRE was 0.4 mg/dL.

What about the Ca [3] of the same compound?
The Ca was 10.7 mg/dL.

What about the Cl [3] of the same compound?
Its Cl is 101.6 meq/L.

And the DBIL [3]?
The DBIL was 0.068 mg/dL.

And the GLC [3]?
Its GLC is 183.2 mg/dL.

What about the IP [3] of the same compound?
Its IP is 9.2 mg/dL.

What about the K [3] of the same compound?
The K was 4 meq/L.

What about the LDH [3] of the same compound?
Its LDH is 229.4 IU/L.

What about the Na [3] of the same compound?
Its Na is 140.4 meq/L.

What about the PL [3] of the same compound?
Its PL is 137.6 mg/dL.

And the RALB [3]?
Its RALB is 3.4 g/dL.

And the TBIL [3]?
Its TBIL is 0.1 mg/dL.

And the TC [3]?
Its TC is 77.2 mg/dL.

What about the TG [3] of the same compound?
The TG was 66.2 mg/dL.

And the TP [3]?
The TP was 5.5 g/dL.

And the gamma-GTP [3]?
The gamma-GTP was 0.8 IU/L.

What about the A/G (100 mg/kg, 3 h, dose level Low) of the same compound?
Its A/G is 2.4.

And the ALP (100 mg/kg, 3 h, dose level Low)?
Its ALP is 1349.8 IU/L.

What about the ALT (100 mg/kg, 3 h, dose level Low) of the same compound?
The ALT was 39.2 IU/L.

What about the AST (100 mg/kg, 3 h, dose level Low) of the same compound?
Its AST is 64.6 IU/L.

And the BUN (100 mg/kg, 3 h, dose level Low)?
The BUN was 11.2 mg/dL.

What about the CRE (100 mg/kg, 3 h, dose level Low) of the same compound?
Its CRE is 0.3 mg/dL.

What about the Ca (100 mg/kg, 3 h, dose level Low) of the same compound?
Its Ca is 11.1 mg/dL.

What about the Cl (100 mg/kg, 3 h, dose level Low) of the same compound?
Its Cl is 104.2 meq/L.

What about the DBIL (100 mg/kg, 3 h, dose level Low) of the same compound?
The DBIL was 0.006 mg/dL.

And the GLC (100 mg/kg, 3 h, dose level Low)?
The GLC was 187.6 mg/dL.

And the IP (100 mg/kg, 3 h, dose level Low)?
The IP was 9.6 mg/dL.

What about the K (100 mg/kg, 3 h, dose level Low) of the same compound?
The K was 4.3 meq/L.

What about the LDH (100 mg/kg, 3 h, dose level Low) of the same compound?
Its LDH is 91.8 IU/L.

And the Na (100 mg/kg, 3 h, dose level Low)?
Its Na is 138.8 meq/L.

What about the PL (100 mg/kg, 3 h, dose level Low) of the same compound?
Its PL is 144 mg/dL.

What about the RALB (100 mg/kg, 3 h, dose level Low) of the same compound?
Its RALB is 4 g/dL.

What about the TBIL (100 mg/kg, 3 h, dose level Low) of the same compound?
The TBIL was 0.032 mg/dL.

What about the TC (100 mg/kg, 3 h, dose level Low) of the same compound?
Its TC is 91.2 mg/dL.

What about the TG (100 mg/kg, 3 h, dose level Low) of the same compound?
Its TG is 63.2 mg/dL.

What about the TP (100 mg/kg, 3 h, dose level Low) of the same compound?
The TP was 5.7 g/dL.

What about the gamma-GTP (100 mg/kg, 3 h, dose level Low) of the same compound?
Its gamma-GTP is 1 IU/L.

What about the TERMINAL_BW (100 mg/kg, 6 h, dose level High) of the same compound?
Its TERMINAL_BW is 216.2 g.
